In patent US20040009464A1, “Methods for identifying compounds for inhibition of neoplastic lesions, and pharmacetical compositions containing such compounds” (priority 1998, published 2004):
Where two headings read alike, the source gives them in different places.

Columns and labels:
[1] = target: T1, cGMP binding sites of GST-cGB-PDE5 fusion protein (Homo sapiens, UniProt O76074); assay: cGMP binding assay with GST-cGB-PDE5 fusion protein
T1 construct: made in house; host or cells: E. coli BL21 (DE3)

[2] = system: premalignant lesions in mouse mammary gland organ culture; assay: Mammary gland organ culture model; assay type: cell-based; details: FIG. 17
Source text: Test compounds identified by the above methods can be tested for antineoplastic activity by their ability to inhibit the incidence of pre-neoplastic lesions in a mammary gland organ culture system. This mouse mammary gland organ culture technique has been successfully used by other investigators to study the effects of known antineoplastic agents such as certain NSAIDs, retinoids, tamoxifen, selenium, and certain natural products, and is useful for validation of the screening method of the present invention.
For example, female BALB/c mice can be treated with a combination of estradiol and progesterone daily, in order to prime the glands to be responsive to hormones in vitro. The animals are sacrificed, and thoracic mammary glands are excised aseptically and incubated for ten days in growth media supplemented with insulin, prolactin, hydrocortisone, and aldosterone. DMBA (7,12-dimethylbenz(a)anthracene) is added to medium to induce the formation of premalignant lesions Fully developed glands are then deprived of prolactin, hydrocortisone, and aldosterone, resulting in the regression of the glands but not the pre-malignant lesions.
The test compound is dissolved in DMSO and added to the culture media for the duration of the culture period. At the end of the culture period, the glands are fixed in 10% formalin, stained with alum camine, and mounted on glass slides. The incidence of forming mammary lesions is the ratio of the glands with mammary lesions to […]. The incidence of mammary lesions in test compound treated glands is compared with that of the untreated glands.
The extent of the area occupied by the mammary lesions can be quantitated by projecting an image of the gland onto a digitation pad. The area covered by the gland is traced on the pad and considered as 100% of the area. The space covered by each of the non-regressed structures is also outlined on the digitization pad and quantitated by the computer.
Mammary gland organ culture experiment were performed as previously described (Mehta and Moon, Cancer Research, 46: 5832-5835, 1986). […]

HT-29 cells = assay: Cyclic nucleotide (cGMP, cAMP) levels in HT-29 cells by radioimmunoassay; assay type: cell-based, human; details: for effect on cAMP levels: HT-29 cells
[3] = target: T2, PDE peak A (PDE5) from SW480 (Homo sapiens, UniProt O76074); assay: cGMP hydrolysis by PDE peak A (PDE5) isolated from SW480 cells; assay type: biochemical
T2 construct: The novel PDE activity was first found in SW480 colon cancer cell lines; endogenous in cells; host or cells: SW480 colon cancer cells; DEAE-Trisacryl M fraction (peak A)

[4] = system: PDE4 purified from human colon HT-29 cultured tumor cells; assay: PDE4 inhibition assay; assay type: biochemical; details: PDE4 from HT-29 cells
Protocol: (Thompson, W. J., Teraski, W. L., Epstein, P. M., Strada, S. J., Advances in Cyclic Nucleotide Research, 10:69-92, 1979, which is incorporated herein by reference). […] The mixture is incubated at 30° C. for 10 minutes with isolated PDE of this invention. Reactions are terminated, for example, by boiling the reaction mixture for 75 seconds. After cooling on ice, 100 μl of 0.5 mg/mL snake venom (O. Hannah venom available from Sigma) is added and incubated for 10 minutes at 30° C. This reaction is then terminated by the addition of an alcohol, e.g. 1 mL of 100% methanol. Assay samples are applied to 1 mL Dowex 1-X8 column; and washed with 1 mL of 100% methanol. The amount of radioactivity in the breakthrough and the wash from the column is combined and measured with a scintillation counter. The degree of phosphodiesterase inhibition is determined by calculating the amount of radioactivity in drug-treated reactions and comparing against a control sample (a reaction mixture lacking the tested compound but with drug solvent).

HCT116, Colon = assay: Growth inhibition, SRB assay, HCT116; assay type: cell-based; details: Homo sapiens, HCT-116
Source text: (§1) A compound's ability to inhibit tumor cell growth can be measured using the HT-29 human colon carcinoma cell line obtained from ATCC. HT-29 cells have previously been characterized as a relevant colon tumor cell culture model (Fogh, J., and Trempe, G. In. Human Tumor Cells in Vitro, J. Fogh (eds.), Plenum Press, New York, pp. 115-159, 1975). HT-29 cells are maintained in RPMI media supplemented with 5% fetal bovine calf serum (Gemini Bioproducts, Inc., Carlsbad, Calif.) and 2 mm glutamine, and 1% antibiotic-antimycotic in a humidified atmosphere of 95% air and 5% CO2 at 37° C. Briefly, HT-29 cells are plated at a density of 500 cells/well in 96 well microtiter plates and incubated for 24 hours at 37° C. prior to the addition of compound. […] After six days in culture, the cells are fixed by the addition of cold trichloroacetic acid to a final concentration of 10% and protein levels are measured using the sulforhodamine B (SRB) colorimetric protein stain assay as previously described by Skehan, P., Storeng, R., Scudiero, D., Monks, A., McMahon, J., Vistica, D., Warren, J. T., Bokesch, H., Kenney, S., and Boyd, M. R., “New Colorimetric Assay For Anticancer-Drug Screening,” J. Natl Cancer Inst. […]
(§2) To show the effectiveness of this screening method on various forms of neoplasia, compounds were tested on numerous cell lines. […] The IC50 values were determined by the SRB assay. […]

A-427, Lung = assay: Growth inhibition, SRB assay, A-427; assay type: cell-based; details: Homo sapiens
Source text: as §1, §2

[5] = target: T3, purified cyclooxygenase (Type 1) from ram seminal vesicles (Ovis aries, UniProt P05979); assay: COX inhibition assay with purified cyclooxygenase; set-up: COX Inhibition: key to the marks not given beside the values; details: for COX-I inhibition: FIG. 5
T3 sequence (P05979 25-600): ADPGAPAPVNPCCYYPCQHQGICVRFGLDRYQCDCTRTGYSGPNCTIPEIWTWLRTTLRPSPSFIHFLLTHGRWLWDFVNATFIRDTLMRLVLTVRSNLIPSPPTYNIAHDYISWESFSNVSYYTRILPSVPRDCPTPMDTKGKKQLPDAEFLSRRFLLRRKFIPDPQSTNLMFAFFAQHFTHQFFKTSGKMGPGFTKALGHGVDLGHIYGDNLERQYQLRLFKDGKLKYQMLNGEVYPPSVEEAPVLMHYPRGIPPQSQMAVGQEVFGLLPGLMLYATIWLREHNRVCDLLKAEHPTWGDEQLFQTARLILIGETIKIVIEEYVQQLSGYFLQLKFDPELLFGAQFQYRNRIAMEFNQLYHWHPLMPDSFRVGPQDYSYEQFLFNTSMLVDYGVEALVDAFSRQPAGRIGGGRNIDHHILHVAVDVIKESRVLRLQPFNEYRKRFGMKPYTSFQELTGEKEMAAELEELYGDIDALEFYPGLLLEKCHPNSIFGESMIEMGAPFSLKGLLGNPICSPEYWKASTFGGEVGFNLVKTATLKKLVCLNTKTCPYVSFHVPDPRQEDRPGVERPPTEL

[6] = system: cGMP PDE purified from human colon HT-29 cultured tumor cells; assay: cGMP PDE inhibition assay; assay type: biochemical; set-up: PDE Inhibition: key to the marks not given beside the values
[7] = system: SW-480 colon adenocarcinoma cells; assay: Apoptosis fold induction protocol (DNA fragmentation ELISA); assay type: cell-based, human; set-up: key to the marks not given beside the values; details: qualitative activity profile
[8] = system: novel cGMP-specific PDE peak B from SW480; assay: cGMP hydrolysis by novel cGMP-specific PDE peak B (Section IA) from SW480 cells; assay type: biochemical, human; details: for Ratio (IC50 Peak A/Peak B): cGMP hydrolysis

## Nc1nc2c(nc(Br)n2[C@@H]2O[C@@H]3COP(=O)(O)O[C@H]3[C@H]2O)c(=O)[nH]1 [Compound 8-bromo-cGMP, 8-bromo-cGMP]
[1]; FIG. 24
  competition with cGMP (2 μM) in binding of GST-cGB-PDE5: can partially compete

## CC1=C(CC(=O)O)c2cc(F)ccc2/C1=C\c1ccc([S+](C)[O-])cc1 (centres unmarked) [sulindac]
[2]
  inhibition of premalignant lesions in mammary gland organ culture: effectively inhibit the formation of premalignant lesions

## COc1ccc(C2CNC(=O)C2)cc1OC1CCCC1 (centres unmarked) [Rolipram]
HT-29 cells
  effect on cAMP levels: increased cAMP

## Nc1ncnc2c1ncn2[C@@H]1O[C@@H]2COP(=O)(O)O[C@H]2[C@H]1O [Cyclic AMP]
[1]
  competition with cGMP (2 μM) in binding of GST-cGB-PDE5: did not compete

## CCCc1nn(C)c2c(=O)[nH]c(-c3cc(S(=O)(=O)N4CCN(C)CC4)ccc3OCC)nc12 [Sildenafil]
[3]
  inhibition of activity of peak A: inhibited activity of peak A

## CCCCOC1C2OP(=O)(O)OCC2OC1n1cnc2c(N)ncnc21 (centres unmarked) [2′-O-butyl-cAMP]
[1]; FIG. 24
  competition with cGMP (2 μM) in binding of GST-cGB-PDE5: did not compete

## O=C([O-])C1CCN(c2nc(NCc3ccc4c(c3)OCO4)c3cc(Cl)ccc3n2)CC1.[Na+] [Compound E4021]
[1]; FIG. 24
  competition with cGMP (2 μM) in binding of GST-cGB-PDE5: None of the PDE5 inhibitors showed any competition

## CSc1ccc(/C=C2/C(C)=C(CC(=O)O)c3cc(F)ccc32)cc1 [Sulindac sulfide]
[4]
  IC50: 41 µM
[2]
  inhibition of premalignant lesions in mammary gland organ culture: inactive
HCT116, Colon
  IC50: 45 µM
[1]; FIG. 24
  competition with cGMP (2 μM) in binding of GST-cGB-PDE5: None of the PDE5 inhibitors showed any competition
A-427, Lung
  IC50: 90 µM
[5]; qualitative activity profile
  COX Inhibition: ++++
[5]; read-out: Cyclooxygenase inhibitory activity, % Inhibition at 100 μM
  inhibition at 100 µM: 97%
HT-29 cells
  effect on cAMP levels: unaffected
HT-29 cells; Homo sapiens, 0.5 h, read-out: EC50 for increase of cGMP levels, HT-29 cells treated 30 minutes
  EC50: 7.3 µM
[6]; 10 μM
  cGMP PDE inhibitory activity, % Inhibition at 10 μM: 97%
[6]; qualitative activity profile
  PDE Inhibition: +++
[6]; read-out: IC50 for inhibition of cGMP PDE, cGMP PDE from HT-29 cells
  IC50: 17 µM
[7]
  Apoptosis: +++

## O=c1ccn([C@@H]2O[C@@H]3COP(=O)(O)O[C@H]3[C@H]2O)c(=O)[nH]1 [cUMP]
[1]; FIG. 24
  competition with cGMP (2 μM) in binding of GST-cGB-PDE5: did not compete

## CCCOc1ccccc1-c1nc2nn[nH]c2c(=O)[nH]1 [Zaprinast]
[1]; FIG. 24
  competition with cGMP (2 μM) in binding of GST-cGB-PDE5: None of the PDE5 inhibitors showed any competition

## CC1(C)C(=O)Nc2ccc(C3=NNC(=O)CC3)cc21 [Indolidan]
[8]
  Ratio (IC50 Peak A/Peak B): <0.31

## O=c1[nH]cnc2c1ncn2[C@@H]1O[C@@H]2COP(=O)(O)O[C@H]2[C@H]1O [Cyclic IMP]
[1]; FIG. 24
  competition with cGMP (2 μM) in binding of GST-cGB-PDE5: can partially compete

## COc1cc(C=C2C(C)=C(CC(=O)O)c3cc(F)ccc32)cc(OC)c1OC [Compound B, (Z)-5-Fluoro-2-methyl-1-(3,4,5-trimethoxybenzylidene)-3-acetic acid]
[1]; FIG. 24
  competition with cGMP (2 μM) in binding of GST-cGB-PDE5: None of the PDE5 inhibitors showed any competition
[5]
  COX-I inhibition: neither test compound B and E significantly inhibit COX-I
[7]
  Apoptosis: +++

## Nc1ccn([C@@H]2O[C@@H]3COP(=O)(O)O[C@H]3[C@H]2O)c(=O)n1 [cCMP]
[1]; FIG. 24
  competition with cGMP (2 μM) in binding of GST-cGB-PDE5: did not compete

## COc1cc(/C=C2/C(C)=C(CC(=O)NCc3ccccc3)c3cc(F)ccc32)cc(OC)c1OC [Compound E, (Z)-5-Fluoro-2-methyl-1-(3,4,5-trimethoxybenzylidene)-3-indenylacetamide, N-benzyl]
[1]; FIG. 24
  competition with cGMP (2 μM) in binding of GST-cGB-PDE5: None of the PDE5 inhibitors showed any competition
[5]
  COX-I inhibition: neither test compound B and E significantly inhibit COX-I
[3]
  competitive (with cGMP) binding to PDE5 peak A: does competitively (with cGMP) bind to PDE 5
[8]
  competitive (with cGMP) binding to PDE peak B: competitively (with cGMP) binds to PDE peak B
  Ratio (IC50 Peak A/Peak B): 1.0
[7]
  Apoptosis: ++++

## CCCCOC1C2OP(=O)(O)OCC2OC1n1cnc2c(=O)[nH]c(N)nc21 (centres unmarked) [2′-O-butyl-cGMP]
[1]; FIG. 24
  competition with cGMP (2 μM) in binding of GST-cGB-PDE5: did not compete
